From patent publication US10829501B2 (BRISTOL-MYERS SQUIBB COMPANY, priority 2016, dated 2020)

molecular target: ROCK2 (Homo sapiens, UniProt O75116); assay: ROCK2 kinase inhibition assay (LABCHIP 3000 Reader, FITC peptide substrate);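 also: rho kinase reaction read by separating phosphorylated from unphosphorylated peptide on chip, with inhibition of kinase activity computed per concentration across a dose-response series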
Sequence (O75116 whole entry, species assumed): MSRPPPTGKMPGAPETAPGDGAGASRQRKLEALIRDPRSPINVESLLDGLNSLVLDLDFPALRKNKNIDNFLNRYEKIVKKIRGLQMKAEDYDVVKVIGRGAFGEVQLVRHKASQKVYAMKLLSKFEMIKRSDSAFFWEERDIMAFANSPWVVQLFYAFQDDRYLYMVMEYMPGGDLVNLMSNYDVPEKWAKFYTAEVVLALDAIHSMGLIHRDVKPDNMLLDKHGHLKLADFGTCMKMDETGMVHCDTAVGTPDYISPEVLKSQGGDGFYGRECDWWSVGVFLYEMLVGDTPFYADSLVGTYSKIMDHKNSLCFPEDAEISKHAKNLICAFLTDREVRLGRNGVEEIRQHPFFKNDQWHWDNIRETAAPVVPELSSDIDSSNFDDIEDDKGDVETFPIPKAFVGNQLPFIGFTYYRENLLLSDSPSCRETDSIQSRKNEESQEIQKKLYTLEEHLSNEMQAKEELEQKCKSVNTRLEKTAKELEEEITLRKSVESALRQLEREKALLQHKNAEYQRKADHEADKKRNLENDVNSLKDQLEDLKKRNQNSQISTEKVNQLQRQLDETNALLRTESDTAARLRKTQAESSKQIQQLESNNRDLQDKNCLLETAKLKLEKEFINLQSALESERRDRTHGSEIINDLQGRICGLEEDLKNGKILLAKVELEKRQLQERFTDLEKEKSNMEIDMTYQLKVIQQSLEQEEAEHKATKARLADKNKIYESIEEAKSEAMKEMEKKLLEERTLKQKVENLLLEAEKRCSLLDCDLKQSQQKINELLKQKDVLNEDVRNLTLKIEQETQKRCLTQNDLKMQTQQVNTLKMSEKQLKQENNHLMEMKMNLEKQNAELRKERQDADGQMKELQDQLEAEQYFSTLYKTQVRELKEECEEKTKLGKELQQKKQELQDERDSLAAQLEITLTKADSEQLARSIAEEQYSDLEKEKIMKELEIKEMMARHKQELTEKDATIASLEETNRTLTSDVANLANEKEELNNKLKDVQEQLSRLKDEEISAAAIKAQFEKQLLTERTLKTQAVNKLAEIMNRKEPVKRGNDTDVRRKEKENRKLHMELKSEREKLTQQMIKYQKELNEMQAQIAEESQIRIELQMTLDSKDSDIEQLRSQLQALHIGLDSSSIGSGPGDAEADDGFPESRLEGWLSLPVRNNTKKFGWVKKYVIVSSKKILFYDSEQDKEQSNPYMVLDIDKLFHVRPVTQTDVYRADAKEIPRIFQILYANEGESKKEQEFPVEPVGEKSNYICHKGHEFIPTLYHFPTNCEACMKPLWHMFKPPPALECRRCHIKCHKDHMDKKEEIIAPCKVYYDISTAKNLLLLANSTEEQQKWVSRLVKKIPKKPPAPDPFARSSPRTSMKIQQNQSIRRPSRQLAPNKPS

Row | Structure (SMILES) | IC50 [nM]
1 | CC(C)(O)COc1ccc2c(C(=O)NC3CC4(C3)CC(Oc3cc(-c5cnn(C6CCOCC6)c5)ccc3C(N)=O)C4)cnn2c1 (centres unmarked) [Example 278, N-(6-(2-carbamoyl-5-(1-(tetrahydro-2H-pyran-4-yl)-1H-pyrazol-4-yl)phenoxy)spiro[3.3]heptan-2-yl)-6-(2-hydroxy-2-methylpropoxy)pyrazolo[1,5-a]pyridine-3-carboxamide] | 5 to 50
2 | CC(C)(O)COc1ccc2c(C(=O)NC3CC4(C3)CC(Oc3cc(-c5cnn(CC(C)(C)O)c5)ccc3C(N)=O)C4)cnn2c1 (centres unmarked) [Example 279, N-(6-(2-carbamoyl-5-(1-(2-hydroxy-2-methylpropyl)-1H-pyrazol-4-yl)phenoxy)spiro[3.3]heptan-2-yl)-6-(2-hydroxy-2-methylpropoxy)pyrazolo[1,5-a]pyridine-3-carboxamide] | 5 to 50
3 | CC(C)(O)COc1ccc2c(C(=O)NC3CC4(C3)CC(Oc3cc(-c5ccc(C(N)=O)c(F)c5)ccc3C(N)=O)C4)cnn2c1 (centres unmarked) [Example 280, 3-fluoro-3′-((6-(6-(2-hydroxy-2-methylpropoxy)pyrazolo[1,5-a]pyridine-3-carboxamido)spiro[3.3]heptan-2-yl)oxy)-[1,1′-biphenyl]-4,4′-dicarboxamide] | 5 to 50
4 | CC(C)(O)COc1ccc2c(C(=O)NC3CC4(C3)CC(Oc3cc(-c5ccc(CN6CCOCC6)s5)ccc3C(N)=O)C4)cnn2c1 (centres unmarked) [Example 281, N-(6-(2-carbamoyl-5-(5-(morpholinomethyl)thiophen-2-yl)phenoxy)spiro[3.3]heptan-2-yl)-6-(2-hydroxy-2-methylpropoxy)pyrazolo[1,5-a]pyridine-3-carboxamide] | 5 to 50
5 | CCOC(=O)Cc1cccc(-c2ccc(C(N)=O)c(OC3CC4(CC(NC(=O)c5cnn6cc(OCC(C)(C)O)ccc56)C4)C3)c2)c1 (centres unmarked) [Example 282, ethyl 2-(4′-carbamoyl-3′-((6-(6-(2-hydroxy-2-methylpropoxy)pyrazolo[1,5-a]pyridine-3-carboxamido)spiro[3.3]heptan-2-yl)oxy)-[1,1′-biphenyl]-3-yl)acetate] | 5 to 50
6 | CC(C)(O)COc1ccc2c(C(=O)NC3CC4(C3)CC(Oc3cc(-c5cc(F)c(F)c(F)c5)ccc3C(N)=O)C4)cnn2c1 (centres unmarked) [Example 283, N-(6-((4-carbamoyl-3′,4′,5′-trifluoro-[1,1′-biphenyl]-3-yl)oxy)spiro[3.3]heptan-2-yl)-6-(2-hydroxy-2-methylpropoxy)pyrazolo[1,5-a]pyridine-3-carboxamide] | 50 to 250
7 | CC(C)(O)COc1ccc2c(C(=O)NC3CC4(C3)CC(Oc3cc(-c5cccc(S(C)(=O)=O)c5)ccc3C(N)=O)C4)cnn2c1 (centres unmarked) [Example 284, N-(6-((4-carbamoyl-3′-(methylsulfonyl)-[1,1′-biphenyl]-3-yl)oxy)spiro[3.3]heptan-2-yl)-6-(2-hydroxy-2-methylpropoxy)pyrazolo[1,5-a]pyridine-3-carboxamide] | < 5
8 | CN(C)CCNC(=O)c1cccc(-c2ccc(C(N)=O)c(OC3CC4(CC(NC(=O)c5cnn6cc(OCC(C)(C)O)ccc56)C4)C3)c2)c1 (centres unmarked) [Example 285, N3-(2-(dimethylamino)ethyl)-3′-((6-(6-(2-hydroxy-2-methylpropoxy)pyrazolo[1,5-a]pyridine-3-carboxamido)spiro[3.3]heptan-2-yl)oxy)-[1,1′-biphenyl]-3,4′-dicarboxamide] | 5 to 50
9 | CC(C)(O)COc1ccc2c(C(=O)NC3CC4(C3)CC(Oc3cc(-c5ccc(S(C)(=O)=O)cc5)ccc3C(N)=O)C4)cnn2c1 (centres unmarked) [Example 286, N-(6-((4-carbamoyl-4′-(methylsulfonyl)-[1,1′-biphenyl]-3-yl)oxy)spiro[3.3]heptan-2-yl)-6-(2-hydroxy-2-methylpropoxy)pyrazolo[1,5-a]pyridine-3-carboxamide] | 5 to 50
10 | CNC(=O)c1cccc(-c2ccc(C(N)=O)c(OC3CC4(CC(NC(=O)c5cnn6cc(OCC(C)(C)O)ccc56)C4)C3)c2)c1 (centres unmarked) [Example 287, 3′-((6-(6-(2-hydroxy-2-methylpropoxy)pyrazolo[1,5-a]pyridine-3-carboxamido)spiro[3.3]heptan-2-yl)oxy)-N3-methyl-[1,1′-biphenyl]-3,4′-dicarboxamide] | 5 to 50
11 | CC(C)(O)COc1ccc2c(C(=O)NC3CC4(C3)CC(Oc3cc(-c5cccc(OCCCN)c5)ccc3C(N)=O)C4)cnn2c1 (centres unmarked) [Example 288, N-(6-((3′-(3-aminopropoxy)-4-carbamoyl-[1,1′-biphenyl]-3-yl)oxy)spiro[3.3]heptan-2-yl)-6-(2-hydroxy-2-methylpropoxy)pyrazolo[1,5-a]pyridine-3-carboxamide] | 5 to 50
12 | CC(C)(O)COc1ccc2c(C(=O)NC3CC4(C3)CC(Oc3cc(-c5cccc(C(N)=O)c5)ccc3C(N)=O)C4)cnn2c1 (centres unmarked) [Example 289, 3′-((6-(6-(2-hydroxy-2-methylpropoxy)pyrazolo[1,5-a]pyridine-3-carboxamido)spiro[3.3]heptan-2-yl)oxy)-[1,1′-biphenyl]-3,4′-dicarboxamide] | < 5
13 | CC(C)(O)COc1ccc2c(C(=O)NC3CC4(C3)CC(Oc3cc(/C=C/CCO)ccc3C(N)=O)C4)cnn2c1 (centres unmarked) [Example 290, (E)-N-(6-(2-carbamoyl-5-(4-hydroxybut-1-en-1-yl)phenoxy)spiro[3.3]heptan-2-yl)-6-(2-hydroxy-2-methylpropoxy)pyrazolo[1,5-a]pyridine-3-carboxamide] | 5 to 50
14 | CC(C)(O)COc1ccc2c(C(=O)NC3CC4(C3)CC(Oc3cc(-c5cccc(/C=C/C(=O)O)c5)ccc3C(N)=O)C4)cnn2c1 (centres unmarked) [Example 291, (E)-3-(4′-carbamoyl-3′-((6-(6-(2-hydroxy-2-methylpropoxy)pyrazolo[1,5-a]pyridine-3-carboxamido)spiro[3.3]heptan-2-yl)oxy)-[1,1′-biphenyl]-3-yl)acrylic acid] | 5 to 50
15 | CC(C)(O)COc1ccc2c(C(=O)NC3CC4(C3)CC(Oc3cc(-c5ccc(F)c(C(N)=O)c5)ccc3C(N)=O)C4)cnn2c1 (centres unmarked) [Example 292, 4-fluoro-3′-((6-(6-(2-hydroxy-2-methylpropoxy)pyrazolo[1,5-a]pyridine-3-carboxamido)spiro[3.3]heptan-2-yl)oxy)-[1,1′-biphenyl]-3,4′-dicarboxamide] | < 5
16 | COCCNC(=O)c1cccc(-c2ccc(C(N)=O)c(OC3CC4(CC(NC(=O)c5cnn6cc(OCC(C)(C)O)ccc56)C4)C3)c2)c1 (centres unmarked) [Example 293, 3′-((6-(6-(2-hydroxy-2-methylpropoxy)pyrazolo[1,5-a]pyridine-3-carboxamido)spiro[3.3]heptan-2-yl)oxy)-N3-(2-methoxyethyl)-[1,1′-biphenyl]-3,4′-dicarboxamide] | 5 to 50
17 | CC(C)(O)COc1ccc2c(C(=O)NC3CC4(C3)CC(Oc3cc(-c5cccc(C(=O)N6CCOCC6)c5)ccc3C(N)=O)C4)cnn2c1 (centres unmarked) [Example 294, N-(6-((4-carbamoyl-3′-(morpholine-4-carbonyl)-[1,1′-biphenyl]-3-yl)oxy)spiro[3.3]heptan-2-yl)-6-(2-hydroxy-2-methylpropoxy)pyrazolo[1,5-a]pyridine-3-carboxamide] | 5 to 50
18 | CNC(=O)c1cc(-c2ccc(C(N)=O)c(OC3CC4(CC(NC(=O)c5cnn6cc(OCC(C)(C)O)ccc56)C4)C3)c2)ccc1F (centres unmarked) [Example 295, 4-fluoro-3′-((6-(6-(2-hydroxy-2-methylpropoxy)pyrazolo[1,5-a]pyridine-3-carboxamido)spiro[3.3]heptan-2-yl)oxy)-N3-methyl-[1,1′-biphenyl]-3,4′-dicarboxamide] | 5 to 50
19 | CC(C)(O)COc1ccc2c(C(=O)NC3CC4(C3)CC(Oc3cc(-c5cccc(C(=O)O)c5)ccc3C(N)=O)C4)cnn2c1 (centres unmarked) [Example 296, 4′-carbamoyl-3′-((6-(6-(2-hydroxy-2-methylpropoxy)pyrazolo[1,5-a]pyridine-3-carboxamido)spiro[3.3]heptan-2-yl)oxy)-[1,1′-biphenyl]-3-carboxylic acid] | 5 to 50
20 | CC(C)(O)COc1ccc2c(C(=O)NC3CC4(C3)CC(Oc3cc(-c5cccc(S(=O)(=O)NCCO)c5)ccc3C(N)=O)C4)cnn2c1 (centres unmarked) [Example 297, N-(6-((4-carbamoyl-3′-(N-(2-hydroxyethyl)sulfamoyl)-[1,1′-biphenyl]-3-yl)oxy)spiro[3.3]heptan-2-yl)-6-(2-hydroxy-2-methylpropoxy)pyrazolo[1,5-a]pyridine-3-carboxamide] | < 5
21 | CC(C)(O)COc1ccc2c(C(=O)NC3CC4(C3)CC(Oc3cc(-c5cccc(S(N)(=O)=O)c5)ccc3C(N)=O)C4)cnn2c1 (centres unmarked) [Example 298, N-(6-((4-carbamoyl-3′-sulfamoyl-[1,1′-biphenyl]-3-yl)oxy)spiro[3.3]heptan-2-yl)-6-(2-hydroxy-2-methylpropoxy)pyrazolo[1,5-a]pyridine-3-carboxamide] | < 5
22 | CC(C)(O)COc1ccc2c(C(=O)NC3CC4(C3)CC(Oc3cc(-c5ccc(F)c(-c6nnn[nH]6)c5)ccc3C(N)=O)C4)cnn2c1 (centres unmarked) [Example 299, N-(6-((4-carbamoyl-4′-fluoro-3′-(1H-tetrazol-5-yl)-[1,1′-biphenyl]-3-yl)oxy)spiro[3.3]heptan-2-yl)-6-(2-hydroxy-2-methylpropoxy)pyrazolo[1,5-a]pyridine-3-carboxamide] | 5 to 50
23 | CC(C)(O)COc1ccc2c(C(=O)NC3CC4(C3)CC(Oc3cc(CCCN)ccc3C(N)=O)C4)cnn2c1 (centres unmarked) [Example 300, N-(6-(5-(3-aminopropyl)-2-carbamoylphenoxy)spiro[3.3]heptan-2-yl)-6-(2-hydroxy-2-methylpropoxy)pyrazolo[1,5-a]pyridine-3-carboxamide] | < 5
24 | CC(C)(O)COc1ccc2c(C(=O)NC3CC4(C3)CC(Oc3cc(C5CCNC5)ccc3C(N)=O)C4)cnn2c1 (centres unmarked) [Example 301, N-(6-(2-carbamoyl-5-(pyrrolidin-3-yl)phenoxy)spiro[3.3]heptan-2-yl)-6-(2-hydroxy-2-methylpropoxy)pyrazolo[1,5-a]pyridine-3-carboxamide] | 5 to 50
25 | CC(C)(O)COc1ccc2c(C(=O)N[C@H]3CC4(C3)C[C@H](Oc3cc(Br)ccc3C(N)=O)C4)cnn2c1 (stereo partly drawn) [Example 302, N-((aR)-6-(5-bromo-2-carbamoylphenoxy)spiro[3.3]heptan-2-yl)-6-(2-hydroxy-2-methylpropoxy)pyrazolo[1,5-a]pyridine-3-carboxamide] | < 5
26 | NC(=O)c1ccccc1O[C@H]1CC2(C[C@H](NC(=O)c3cnn4ccccc34)C2)C1 (stereo partly drawn) [Example 303, N-((aR)-6-(2-carbamoylphenoxy)spiro[3.3]heptan-2-yl)pyrazolo[1,5-a]pyridine-3-carboxamide] | 50 to 250
